This test has as its system HCMV AD 169 RV-HG. The test is described as follows: HCMV fluorescence-reduction test (GFP-RA). Format: cell-based, human cytomegalovirus. The settings on record: Human betaherpesvirus 5, AD169, NHDF, 168 h, read-out: EC50 (GFP-RA). The source says: The in vitro effects of the compositions according to the present invention on the replication of the HCMV (human cytomegalovirus) can be seen in the following antiviral assay:
The solution from Example 8 is used without further dilution in the test. The composition from Example 6A is used as a 50-millimolar (mM) solution in dimethyl sulphoxide (DMSO). Ganciclovir®, Foscarnet® or Cidofovir® can be used as reference compositions. One day before the beginning of the test, 1.5×10^4 human foreskin fibroblasts (NHDF cells)/well are seeded in 200 μl of cell culture medium in Wells B2-G11 of 96-well plates (black with transparent floor). The wells along the edges of each 96-well plate are filled with 200 μl of medium only in order to prevent edge effects. […] The virus used is a recombinant HCMV which has integrated an expression cassette for green fluorescence protein (GFP) in the virus genome (HCMV AD 169 RV-HG [E. M. Borst, K. Wagner, A. Binz, B. Sodeik, and M. Messerle, 2008, J. Virol. 82:2065-2078.]). […] The GFP intensity of each well in a 96-well plate is then determined using a fluorescence scanner (FluoBox; Bayer Technology Services GmbH; filter settings: GFP, Ex 480 nm, Em 520 nm). The measured values thus obtained can be used to determine the EC50 of an anti-HCMV: […]

Structures are written as SMILES.

On to `COc1cccc(N2CCN(C3=Nc4c(F)cccc4[C@H](CC(=O)O)N3c3cc(C(F)(F)F)ccc3OC)CC2)c1` [Example 6A, (S)-{8-fluoro-2-[4-(3-methoxyphenyl)piperazine-1-yl]-3-(2-methoxy-5-trifluoromethylphenyl)-3,4-dihydroquinazoline-4-yl}acetic acid], for which the EC50 (as a rule, the concentration giving half of the maximal effect) is 2.2 ± 0.2 nM.

As for `Nc1nc(O)c2ncn(COC(CO)CO)c2n1` [Ganciclovir], the EC50 stood at 2500 ± 400 nM.

Values taken from US10603384B2, “Pharmaceutical composition containing an antivirally active dihydroquinazoline derivative” (AICURIS GMBH & CO. KG, priority 2012, dated 2020).
